From patent US7732618B2, “Benzimidazole acetic acids exhibiting CRTH2 receptor antagonism and uses thereof” (Wyeth, priority 2004, dated 2010)

What was measured:
human CRTH2 [1] = target: T1, human CRTH2 (Homo sapiens, UniProt Q9Y5Y4); experiment: CRTH2 fluorescent imaging assay (intracellular calcium); assay type: cell-based; parameters: expressed in transfected cells; host or cells: HEK 293EBNA-hCRTH2 cells or HT1080-hCRTH2 cells; settings: for IC50: antagonism of PGD2-induced calcium increase, HEK 293EBNA-hCRTH2 or HT1080-hCRTH2 cells, read-out: RAGE hCRTH2 IC50; for approximate EC75 for PGD2: calcium response
T1 sequence (Q9Y5Y4 1-395): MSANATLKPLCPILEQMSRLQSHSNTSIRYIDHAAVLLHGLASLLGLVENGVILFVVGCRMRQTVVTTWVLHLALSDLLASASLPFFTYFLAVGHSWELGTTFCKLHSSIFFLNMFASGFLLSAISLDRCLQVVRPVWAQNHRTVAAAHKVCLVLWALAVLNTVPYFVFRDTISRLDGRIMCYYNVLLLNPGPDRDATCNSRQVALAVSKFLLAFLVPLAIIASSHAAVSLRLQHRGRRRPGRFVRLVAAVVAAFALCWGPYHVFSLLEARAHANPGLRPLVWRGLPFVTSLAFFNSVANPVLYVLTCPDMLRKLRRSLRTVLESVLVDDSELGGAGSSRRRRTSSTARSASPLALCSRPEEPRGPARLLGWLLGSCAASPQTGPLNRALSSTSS
Protocol: The ability of the disclosed compounds to act as agonists for the hCRTH2 receptor was determined by their ability to cause increases in intracellular calcium via binding to the CRTH2 receptor.
Assays were performed on HEK 293EBNA-hCRTH2 cells that had been grown in DMEM media containing 10% FBS, […] puromycin and 1% penicillin/streptomycin/glutamine (PSG) at 37° C. in 5% CO2 or on HT1080-hCRTH2 cells (a HT1080 cell line stably expressing human CRTH2) that had been grown in alphaMEM media containing 10% FBS, 500 μg/ml hygromycin, 200 nM methotrexate and 1% PSG at 37° C. in 5% CO2.
For the assay, HEK 293EBNA-hCRTH2 cells or HT1080-hCRTH2 cells were grown to approximately 90% confluency and then dislodged from the plate with Trypsin-EDTA, resuspended in DMEM media, seeded in 384 well plates at 2×10^4 cells per well and incubated overnight at 37° C. The cells were loaded with a calcium sensing dye by removing the growth media and replacing it with 30 μL of dye loading Ringer's buffer (136 mM […], 5.4 mM D-Glucose, 20 mM Hepes pH 7.4, 2.1 mM MgCl2, 0.8 mM CaCl2, 0.2% BSA with 1× Calcium3Dye (Molecular Devices) and 2.5 mM Probenecid (Sigma)) per well. The cells were incubated at 37° C. for 1 hour to allow the dye to enter the cells. Compounds were serially diluted in DMSO and then diluted to 4× their final concentration with Ringer's buffer. The compounds were added to a 384 well plate in quadruplicate. In addition to test compounds, several wells contained Ringer's buffer with DMSO. These wells serve as control wells. 10 μL was transferred from compound/control plate to the plate containing cells loaded with dye by a fluorescent imaging plate reader (Molecular Devices). The fluorescence was measured every 4 seconds for 4 minutes. These measurements indicated the level of intracellular calcium. Increases in fluorescence relative to wells containing buffer only indicated an agonist effect of the compound. Measurement at various compound concentrations allowed one to determine the EC50 for these compounds. Following the 4 minute incubation with compound, 20 μL of Ringer's buffer with either 10 nM or 500 nM PGD2 (approximate EC75 for PGD2 in HEK 293EBNA-hCRTH2 cells and HT1080-hCRTH2 cells, respectively) was added to the wells. Inhibition by the compounds of the calcium response due to antagonism of PGD2 action on CRTH2 is reflected by a decrease in fluorescent signal relative to wells containing no compound. The fluorescence was measured every 2 seconds for 10 seconds before addition of PGD2 and every 2 seconds for 110 seconds following addition. Measurement at various compound concentrations allowed one to determine the IC50 for the compounds. EC50 and IC50 values were determined from the experimental results by nonlinear regression using the Prism 4.0 software.

human CRTH2 [2] = target: T1, human CRTH2; experiment: CRTH-2 binding assay (scintillation proximity assay, inhibition of 3H-PGD2 binding); parameters: expressed in transfected cells; host or cells: 293EBNA-hCRTH2 cells (membrane preparation); settings: membranes from 293EBNA-hCRTH2 cells, 3H-PGD2 3.6 nM; Ki calculated from IC50
Protocol: A CRTH2 binding assay was developed to measure the ability of compounds to inhibit the binding of PGD2 to human CRTH2 using a scintillation proximity assay.
Membranes containing hCRTH2 receptors were prepared from 293EBNA-hCRTH2 cells (a 293EBNA cell line stably expressing human CRTH2). The cells were grown to confluency, harvested and washed with PBS. The cells were resuspended in 10 mM Hepes pH 7.4, 1 mM EDTA and protease inhibitors and incubated for 30 min on ice. The cells were homogenized and centrifuged for 10 min at 1000×g. The supernate was centrifuged for 30 min at 100,000×g and the membrane pellet was then resuspended in 10 mM Hepes pH 7.4 and 1 mM EDTA. The protein concentration of the membrane preparation was determined by Bradford assay (Bio-Rad).
The ability of compounds to inhibit the interaction of PGD2 to human CRTH2 was determined at seven compound concentrations. Compounds were serially diluted in DMSO then diluted into CRTH2 buffer (10 mM Hepes pH 7.4, 1 mM EDTA, 10 mM MnCl2) to six times the final desired concentration. 20 μL of the diluted compounds were transferred into non-surface binding 96-well plates (Corning). Each concentration was done in triplicate. In addition to test compounds, each plate contained 12 control wells. Six of these wells contained 20 μL of CRTH2 buffer. These wells were used to measure total binding. Six wells contained 20 μL of CRTH2 buffer plus 1.5 mM indomethacin. These wells were used to measure non-specific binding. Next, 293EBNA-hCRTH2 membranes were resuspended in CRTH2 buffer with glycerol (10 mM Hepes pH 7.4, 1 mM EDTA, 10 mM MnCl2, 25% glycerol) so that the final concentration was approximately 20 μg/100 μL. Polylysine-coated yttrium silicate SPA beads (Amersham) were added to the membrane mix to a concentration of 0.4 mg/100 μL and finally ^3H-PGD2 was added to the membrane/SPA bead mix to 3.6 nM. 100 μL of the membrane/SPA bead/^3H-PGD2 mix was added to each well of the non-surface binding plates containing the diluted compound or controls. The plates were incubated for 2 hours at room temperature with shaking and then the plates were counted on a Microbeta scintillation counter (Perkin Elmer) for 1 min per well.
IC50 values were determined from the experimental results by nonlinear regression using Prism 4.0 software. The IC50 values were then used in conjunction with the Kd for hCRTH2 and the ^3H-PGD2 concentration used in the experiment to calculate the Ki for each compound.

SMILES | IC50 (human CRTH2 [1]) | Ki (human CRTH2 [2]) | approximate EC75 for PGD2 (human CRTH2 [1]; HEK 293EBNA-hCRTH2 cells) | approximate EC75 for PGD2 (human CRTH2 [1]; HT1080-hCRTH2 cells)
CCCc1nc2cc(N(Cc3ccc(Cl)cc3)S(=O)(=O)c3ccc(F)cc3)ccc2n1CC(=O)O [Example 43, {5-[(4-Chloro-benzyl)-(4-fluoro-benzenesulfonyl)-amino]-2-propyl-benzoimidazol-1-yl}-acetic acid] | 51 nM | < 100 nM | – | –
CCCc1nc2cc(N(C3CCCCC3)S(=O)(=O)c3ccc(F)cc3)ccc2n1CC(=O)O [Example 46, {5-[(Cyclohexyl)-(4-fluoro-benzenesulfonyl)-amino]-2-propyl-benzoimidazol-1-yl}-acetic acid] | 375 nM | < 1000 nM | – | –
CCCc1nc2cc(N(CCOc3ccc(Cl)cc3)S(=O)(=O)c3ccc(F)cc3)ccc2n1CC(=O)O [Example 47, {5-[[2-(4-Chloro-phenoxy)-ethyl]-(4-fluoro-benzenesulfonyl)-amino]-2-propyl-benzoimidazol-1-yl}-acetic acid] | 22 nM | < 100 nM | – | –
CCCc1nc2cc(N(CCCOc3ccccc3)S(=O)(=O)c3ccc(F)cc3)ccc2n1CC(=O)O [Example 49, {5-[(4-Fluoro-benzenesulfonyl)-(3-phenoxy-propyl)-amino]-2-propyl-benzoimidazol-1-yl}-acetic acid] | 47 nM | < 100 nM | – | –
CCCc1nc2cc(N(Cc3ccccc3)C(=O)c3cccc(Cl)c3)ccc2n1CC(=O)O [Example 62, {5-[Benzyl-(3-chloro-benzoyl)-amino]-2-propyl-benzoimidazol-1-yl}-acetic acid] | – | < 1000 nM | – | –
CCCc1nc2cc(N(Cc3ccccc3)C(=O)c3ccc(Cl)cc3)ccc2n1CC(=O)O [Example 63, {5-[Benzyl-(4-chloro-benzoyl)-amino]-2-propyl-benzoimidazol-1-yl}-acetic acid] | – | < 1000 nM | – | –
CCCc1nc2cc(N(Cc3ccccc3)C(=O)c3ccccc3F)ccc2n1CC(=O)O [Example 64, {5-[Benzyl-(2-fluoro-benzoyl)-amino]-2-propyl-benzoimidazol-1-yl}-acetic acid] | – | > 10000 nM | – | –
CCCc1nc2cc(N(Cc3ccccc3)C(=O)c3cccc(F)c3)ccc2n1CC(=O)O [Example 65, {5-[Benzyl-(3-fluoro-benzoyl)-amino]-2-propyl-benzoimidazol-1-yl}-acetic acid] | – | < 10000 nM | – | –
CCCc1nc2cc(N(Cc3ccccc3)C(=O)c3ccc(F)cc3)ccc2n1CC(=O)O [Example 66, {5-[Benzyl-(4-fluoro-benzoyl)-amino]-2-propyl-benzoimidazol-1-yl}-acetic acid] | – | < 1000 nM | – | –
CCCc1nc2cc(N(Cc3ccccc3)C(=O)c3ccc(F)c(F)c3)ccc2n1CC(=O)O [Example 67, {5-[Benzyl-(3,4-difluoro-benzoyl)-amino]-2-propyl-benzoimidazol-1-yl}-acetic acid] | – | < 1000 nM | – | –
CCCc1nc2cc(N(Cc3ccccc3)C(=O)c3c(F)cccc3F)ccc2n1CC(=O)O [Example 68, {5-[Benzyl-(2,6-difluoro-benzoyl)-amino]-2-propyl-benzoimidazol-1-yl}-acetic acid] | – | < 10000 nM | – | –
CCCc1nc2cc(N(Cc3ccccc3)C(=O)c3sccc3C)ccc2n1CC(=O)O [Example 69, {5-[Benzyl-(3-methyl-thiophene-2-carbonyl)-amino]-2-propyl-benzoimidazol-1-yl}-acetic acid] | – | < 100 nM | – | –
CCCc1nc2cc(N(Cc3ccccc3)C(=O)c3cccs3)ccc2n1CC(=O)O [Example 70, {5-[Benzyl-(thiophene-2-carbonyl)-amino]-2-propyl-benzoimidazol-1-yl}-acetic acid] | 7 nM | < 100 nM | – | –
CCCCC[C@H](O)/C=C/[C@H]1C(=O)C[C@H](O)[C@@H]1C/C=C\CCCC(=O)O [PGD2, prostaglandin D2, reference compound] | – | – | ~10 nM | ~500 nM
